Test results reported in ChEMBL document CHEMBL3585316, “Discovery, bioactivity and docking simulation of Vorinostat analogues containing 1,2,4-oxadiazole moiety as potent histone deacetylase inhibitors and antitumor agents” (Bioorg Med Chem, 2015).

Legend:
Histone deacetylase 2 = Histone deacetylase 2 (Homo sapiens, UniProt Q92769); assay: Inhibition of recombinant HDAC2 (unknown origin) incubated for 10 mins using Boc-Lys(acetyl)-AMC fluorogenic substrate by homogeneous fluorescence release assay
NCI-H661 = assay: Antiproliferative activity against human NCI-H661 cells incubated for 72 hrs by MTT assay; assay type: functional, cell-based; conditions: NCI-H661, 72 h
Histone deacetylase 8 = biological target: T1, Histone deacetylase 8 (Homo sapiens, UniProt Q9BY41); assay: Inhibition of recombinant HDAC8 (unknown origin) incubated for 10 mins using Boc-Lys(acetyl)-AMC fluorogenic substrate by homogeneous fluorescence release assay
T1 sequence (Q9BY41 whole entry): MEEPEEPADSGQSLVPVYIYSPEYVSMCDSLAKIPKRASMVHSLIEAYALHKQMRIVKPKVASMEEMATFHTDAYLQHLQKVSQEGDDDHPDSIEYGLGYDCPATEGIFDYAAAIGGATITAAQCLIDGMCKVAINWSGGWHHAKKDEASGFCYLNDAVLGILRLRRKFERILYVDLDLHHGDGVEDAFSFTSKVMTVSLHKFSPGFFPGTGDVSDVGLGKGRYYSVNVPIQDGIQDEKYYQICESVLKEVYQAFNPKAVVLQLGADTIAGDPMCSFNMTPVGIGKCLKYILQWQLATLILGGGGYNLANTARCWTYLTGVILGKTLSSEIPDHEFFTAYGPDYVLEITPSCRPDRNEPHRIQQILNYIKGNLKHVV

Histone deacetylase 1 = Histone deacetylase 1 (Homo sapiens, UniProt Q13547); assay: Inhibition of recombinant HDAC1 (unknown origin) incubated for 10 mins using Boc-Lys(acetyl)-AMC fluorogenic substrate by homogeneous fluorescence release assay
U-937 = assay: Antiproliferative activity against human U937 cells incubated for 72 hrs by MTT assay; assay type: functional, cell-based; conditions: U-937, 72 h
A549 = assay: cells; conditions: Homo sapiens, A549, 72 h
Description: Antiproliferative activity against human A549 cells incubated for 72 hrs by MTT assay

Histone deacetylase [1] = assay: Inhibition of histone deacetylase (unknown origin) by cell-free assay; assay type: protein assay, Homo sapiens
Histone deacetylase [2] = assay: Inhibition of histone deacetylase (unknown origin) by intracellular cell based assay; parameters: species or system Homo sapiens

Chain of Histone deacetylase 2 (Q92769 whole entry): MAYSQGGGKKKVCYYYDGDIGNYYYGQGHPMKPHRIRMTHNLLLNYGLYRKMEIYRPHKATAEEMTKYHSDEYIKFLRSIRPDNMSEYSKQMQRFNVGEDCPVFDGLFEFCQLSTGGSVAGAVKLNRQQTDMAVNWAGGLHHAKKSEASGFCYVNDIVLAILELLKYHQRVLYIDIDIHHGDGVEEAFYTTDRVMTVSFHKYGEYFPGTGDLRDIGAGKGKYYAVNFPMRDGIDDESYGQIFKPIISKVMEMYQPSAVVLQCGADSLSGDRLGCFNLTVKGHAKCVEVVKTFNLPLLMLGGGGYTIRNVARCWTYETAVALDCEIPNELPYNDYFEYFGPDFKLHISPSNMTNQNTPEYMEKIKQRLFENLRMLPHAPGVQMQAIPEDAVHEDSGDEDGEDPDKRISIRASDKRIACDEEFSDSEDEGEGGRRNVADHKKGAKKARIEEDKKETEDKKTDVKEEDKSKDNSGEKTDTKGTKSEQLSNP
Chain of Histone deacetylase 1 (Q13547 whole entry): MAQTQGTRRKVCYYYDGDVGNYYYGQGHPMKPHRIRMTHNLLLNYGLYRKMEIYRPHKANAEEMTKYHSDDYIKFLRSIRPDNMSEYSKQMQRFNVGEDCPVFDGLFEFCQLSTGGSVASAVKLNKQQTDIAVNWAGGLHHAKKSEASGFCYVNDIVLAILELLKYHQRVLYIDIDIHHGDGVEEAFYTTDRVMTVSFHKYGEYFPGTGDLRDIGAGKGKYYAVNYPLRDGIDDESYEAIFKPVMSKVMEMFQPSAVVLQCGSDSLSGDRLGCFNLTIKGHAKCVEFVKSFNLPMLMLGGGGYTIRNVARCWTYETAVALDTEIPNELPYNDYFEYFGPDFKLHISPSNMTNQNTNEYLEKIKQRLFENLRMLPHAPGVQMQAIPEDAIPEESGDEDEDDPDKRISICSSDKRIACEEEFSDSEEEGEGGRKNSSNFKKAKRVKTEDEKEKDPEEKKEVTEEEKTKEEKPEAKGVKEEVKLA

Row | IC50 (Histone deacetylase 2) [µM] | IC50 (NCI-H661) [µM] | IC50 (Histone deacetylase 8) [µM] | IC50 (Histone deacetylase 1) [µM] | IC50 (U-937) [µM] | IC50 (A549) [µM] | IC50 (Histone deacetylase [1]) [µM] | IC50 (Histone deacetylase [2]) [µM] | Compound
1 | 1.58 | 1.25 | 0.71 | 7.65 | 0.92 | 6.16 |  |  | O=C(CCCCCCc1nc(-c2ccccc2Cl)no1)C(F)(F)F
2 | 1.17 | 17.3 | 2.05 | 0.38 | 1.25 | 7.08 |  |  | O=C(CCCCCCc1nc(-c2ccccc2)no1)NO
3 | 2.78 | 15.8 | 5.39 | 0.49 | 1.36 | 5.81 |  |  | Cc1ccc(-c2noc(CCCCCCC(=O)NO)n2)cc1
4 | > 10 | 20.4 | > 10 | 2.18 | 3.65 | 13.5 |  |  | COc1ccc(-c2noc(CCCCCCC(=O)NO)n2)cc1
5 | 7.93 | 15.3 | > 10 | 1.92 | 2.87 | 14 |  |  | O=C(CCCCCCc1nc(-c2ccc(C(F)(F)F)cc2)no1)NO
6 | 6.26 | 19.4 | 8.76 | 1.15 | 1.93 | 5.77 |  |  | O=C(CCCCCCc1nc(-c2ccc(F)cc2)no1)NO
7 | 5.19 | 17.3 | > 10 | 0.68 | 0.98 | 11.9 |  |  | O=C(CCCCCCc1nc(-c2ccc(Cl)cc2)no1)NO
8 | 1.25 | 10.3 | 3.65 | 0.19 | 0.75 | 8.87 |  |  | O=C(CCCCCCc1nc(-c2ccccc2Cl)no1)NO
9 | 0.23 | 3.09 | 2.56 | 0.07 | 0.29 | 5.31 |  |  | O=C(CCCCCCc1nc(-c2ccc([N+](=O)[O-])cc2)no1)NO
10 | 1.56 | 16.1 | 2.38 | 0.35 | 1.16 | 10.8 |  |  | O=C(CCCCCCc1nc(-c2cccc([N+](=O)[O-])c2)no1)NO
11 | 0.51 | 9.46 | 1.92 | 0.12 | 0.32 | 4.37 |  |  | O=C(CCCCCCc1nc(-c2cccs2)no1)NO
12 | 0.39 | 6.02 | 1.83 | 0.08 | 0.35 | 5.34 |  |  | O=C(CCCCCCc1nc(-c2cccnc2)no1)NO
13 | 0.73 | 0.96 | > 10 | 0.21 | 0.73 | 23.9 |  |  | Nc1ccccc1NC(=O)CCCCCCc1nc(-c2ccccc2)no1
14 | 0.68 | 0.41 | 8.39 | 0.14 | 0.46 | 9.17 |  |  | Cc1ccc(-c2noc(CCCCCCC(=O)Nc3ccccc3N)n2)cc1
15 | 3.85 | 7.99 | > 10 | 0.91 | 2.69 | 19.5 |  |  | COc1ccc(-c2noc(CCCCCCC(=O)Nc3ccccc3N)n2)cc1
16 | > 10 | 29.8 | > 10 | 3.04 | 5.28 | > 100 |  |  | Nc1ccccc1NC(=O)CCCCCCc1nc(-c2ccc(C(F)(F)F)cc2)no1
17 | 2.57 | 9.53 | > 10 | 0.88 | 3.08 | 31.2 |  |  | Nc1ccccc1NC(=O)CCCCCCc1nc(-c2ccc(F)cc2)no1

Row | IC50 (Histone deacetylase 2) [µM] | IC50 (NCI-H661) [µM] | IC50 (Histone deacetylase 8) [µM] | IC50 (Histone deacetylase 1) [µM] | IC50 (U-937) [µM] | IC50 (A549) [µM] | IC50 (Histone deacetylase [1]) [µM] | IC50 (Histone deacetylase [2]) [µM] | Compound
18 | 6.29 | 11.2 | > 10 | 1.56 | 4.36 | 13.8 |  |  | Nc1ccccc1NC(=O)CCCCCCc1nc(-c2ccc(Cl)cc2)no1
19 | > 10 | 8.31 | > 10 | 4.13 | 6.91 | > 100 |  |  | Nc1ccccc1NC(=O)CCCCCCc1nc(-c2ccccc2Cl)no1
20 | > 10 | > 100 | > 10 | 8.67 | 10.2 | > 100 |  |  | Nc1ccccc1NC(=O)CCCCCCc1nc(-c2ccc([N+](=O)[O-])cc2)no1
21 | 5.19 | 7.29 | > 10 | 0.82 | 2.15 | 20.2 |  |  | Nc1ccccc1NC(=O)CCCCCCc1nc(-c2cccc([N+](=O)[O-])c2)no1
22 | 2.87 | 6.18 | > 10 | 0.76 | 1.59 | 28.7 |  |  | Nc1ccccc1NC(=O)CCCCCCc1nc(-c2cccs2)no1
23 | 3.16 | 15.4 | > 10 | 1.05 | 2.07 | > 100 |  |  | Nc1ccccc1NC(=O)CCCCCCc1nc(-c2cccnc2)no1
24 | 1.05 | 0.52 | 0.76 | 5.32 | 0.41 | 7.68 |  |  | O=C(CCCCCCc1nc(-c2ccccc2)no1)C(F)(F)F
25 | 7.32 | 18.7 | 3.19 | > 10 | 3.73 | > 100 |  |  | Cc1ccc(-c2noc(CCCCCCC(=O)C(F)(F)F)n2)cc1
26 | 4.53 | 5.05 | 1.86 | 9.63 | 1.17 | 35.9 |  |  | COc1ccc(-c2noc(CCCCCCC(=O)C(F)(F)F)n2)cc1
27 | 2.79 | 6.39 | 1.03 | 8.25 | 1.96 | 28.8 |  |  | O=C(CCCCCCc1nc(-c2ccc(C(F)(F)F)cc2)no1)C(F)(F)F
28 | > 10 | 12.7 | 7.65 | > 10 | 2.35 | > 100 |  |  | O=C(CCCCCCc1nc(-c2ccc(F)cc2)no1)C(F)(F)F
29 | 8.56 | 11.9 | 2.08 | > 10 | 4.67 | 18.5 |  |  | O=C(CCCCCCc1nc(-c2ccc(Cl)cc2)no1)C(F)(F)F
30 | 8.15 | 17.5 | 3.17 | > 10 | 3.68 | > 100 |  |  | O=C(CCCCCCc1nc(-c2ccc([N+](=O)[O-])cc2)no1)C(F)(F)F
31 | 0.92 | 6.43 | 0.83 | 3.98 | 0.56 | 9.58 |  |  | O=C(CCCCCCc1nc(-c2cccc([N+](=O)[O-])c2)no1)C(F)(F)F
32 | 1.63 | 7.53 | 0.95 | 5.17 | 1.28 | 11.7 |  |  | O=C(CCCCCCc1nc(-c2cccs2)no1)C(F)(F)F
33 |  |  |  |  |  |  | 0.6 | 1.8 | O=C(CCCCCc1nc2cc3ccccc3cc2[nH]1)C(F)(F)F
34 |  |  |  |  | 0.55 |  |  |  | Nc1ccccc1NC(=O)c1ccc(CNC(=O)OCc2cccnc2)cc1 [ENTINOSTAT]
